Reference: patent US4022907A, “Pharmaceutical compositions containing 1,3-dithiacycloalkylidene malonates” (Nihon Nohyaku Co. Ltd., priority 1975, dated 1977)

Tests used:
[1] = Acute oral toxicity (LD50) to male mice; conditions: mouse, in vivo
Method: For example the LD50 values of the compounds 4, 11 and 17 in Table 1 are more than 5,000 mg/kg. Further, these compounds have no detrimental effects on test animals administered therewith, so far as the doses thereof are within an ordinary administration range.

[2] = test system: CCl4-induced hepatotoxicity; test: Protection against CCl4-induced hepatotoxicity (mice); type: in vivo, mice (four-week-old male, dd strain); conditions: 250 mg/kg oral, average of 5 to 6 mice
From the text: Carbon tetrachloride (CCl4) administration induces centrilobular necrosis of the liver associated with loss of diphosphopyridine nucleotide, hepatic glycogen, coenzyme A and increase in neutral fat. Release of several enzymes from the hepatocytes, and increase of enzyme activities in the plasma are recognized as the result of the damage of the liver. A suitable means for evaluating the degree of damage induced by CCl4 or the degree of protection afforded by drugs is to study the plasma glutamic-pyruvic transaminase(p-GPT) activity.
Methods: The test compounds were dissolved or suspended in olive oil and administered orally at the dose of 250 mg/kg to the mice (Four-week-old male mice-dd strain). After 6 hours, CCl4 was administered orally (0.05 ml/kg as olive oil solution). Animals were killed 24 hours after CCl4 administration, and the liver was grossly observed. The plasma was obtained by centrifugation. Activities of p-GPT were determined by the method of Reitman and Frankels and expressed in Karmen units. Score for liver damage index was as follows:
Each figure indicates average of 5 to 6 mice. Values of p-GPT over 1,000 Karmen unit regarded as 1,000 for calculation of average for convenience.

[3] = test system: thioacetamide-induced hepatotoxicity; test: Therapeutic effect against thioacetamide-induced hepatotoxicity, BSP test (rats); type: in vivo, rats (Sprague Dawley strain)
Method: In the tests of this Example, TAA was repeatedly administered to animals to prepare test animals suffering from somewhat chronic liver damages, and then the present compounds were administered thereto to know whether or not the compounds were effective against chronic hepatitis.
The degree of the liver damage and the therapeutic effects of the compounds were evaluated according to BSP test. The BSP test is a method in which BSP (sulfobromophthalein sodium), a dye known to be quickly metabolized in and excreted from the liver, is intravenously injected into animals and, after a definite period of time, the blood is taken out to measure the amount of BSP remaining in the plasma. In case the animals are suffering from the liver damage, the dye will remain, according to the degree of the damage, at the stage where a major portion of BSP is metabolized and excreted in the case of normal animals. Five groups of rats (Sprague Dawley strain) were treated as follows:
Group A: The rats were orally administered with 100 mg/kg of thioacetamide,at 3 days intervals for 36 days (12 times of the administration), then were submitted for 10 days to a normal diet.
Group B: The rats were orally administered with 100 mg/kg of thioacetamide at 3 days intervals for 36 days (12 times of the administration), then were submitted for 10 days to the normal diet + 0.2% of compound 4.
Group C: The rats were orally administered with 100 mg/kg of thioacetamide at 3 days intervals for 36 days (12 times of the administration) then were submitted for 10 days to the normal diet + 0.2% of compound 2.
Group D: The rats were orally administered with 100 mg/kg of thioacetamide at 3 days intervals for 36 days((12 times of the administration) then were submitted for 10 days to the normal diet + 0.2% of anethol trithion.
Group E: The rats were submitted to the normal diet as the control.
Five rate were sacrificed from each group at appropriate intervals for BSP (sulfobromophthalein) test, the results of which were shown as amounts (mg) of BSP remaining in 1 dl of plasma.

[4] = test system: alcohol metabolic function of liver; test: Effect on concentration of ethylalcohol in the blood (mice); type: in vivo; conditions: 250 mg/kg oral pre-treatment, ethylalcohol 1,000 mg/kg oral after 6 h
Method: The test compounds are dissolved or suspended in olive oil and administered orally at the dose of 250 mg/kg to the mice. After 6 hours, 1,000 mg/kg of ethylalcohol was given orally. Blood was taken in a capillary from caudal vein at the time indicated in the results. The plasma was obtained by centrifugation. The concentration of ethylalcohol in the plasma was measured by FID type gas liquid chromatography. Five mice were used for each group.

[5] = test system: glucose metabolic function of liver; test: Effect on glucose metabolism, blood sugar (mice); type: in vivo; conditions: 250 mg/kg oral pre-treatment, glucose 4.0 g/kg oral after 6 h
Method: Methods: The test compounds dissolved in olive oil and administered orally at the dose of 250 mg/kg to the mice. After 6 hours, 4.0 g/kg of glucose was orally administered. The same amount of glucose was given to the control animals. 0.02 ml of blood was taken from caudal vein of the mice at 30, 60, 90 and 120 min. after glucose administration. Blood sugar was measured by the procedure of SomogyiNelson. Number of animals used was 5 to 6 mice for each treatment.

CC(C)OC(=O)C(C(=O)OC(C)C)=C1SCS1 [Compound 4, Diisopropyl 1,3-dithietan-2-ylidene malonate]
LD50 [1]: > 5000 mg/kg | Liver damage index ([2]; CCl4 0.05 ml/kg oral after 6 h, 24 h after CCl4, scale 0 Normal, 2 Slightly recognized, 4 Clearly observable damage, 6 Heavy damage, CCl4 alone 5.2, control 0): 0.0 | p-GPT ([2]; plasma, 24 h after CCl4 0.05 ml/kg oral, values over 1,000 regarded as 1,000, CCl4 alone >1,000, control 35): 20 Karmen units | BSP remaining in plasma ([3]; 2 days of normal diet + 0.2% compound after 12 TAA administrations, TAA only 12.7±3.7, normal 0.4±0.1): 7.1 ± 0.8 mg/dL | BSP remaining in plasma ([3]; 5 days of normal diet + 0.2% compound after 12 TAA administrations, TAA only 8.7±1.9): 3.2 ± 0.6 mg/dL | BSP remaining in plasma ([3]; 10 days of normal diet + 0.2% compound after 12 TAA administrations, TAA only 1.4±0.4, normal 0.6±0.1): 0.6 ± 0.2 mg/dL | Concentration of Ethylalcohol in Plasma ([4]; 0 min, control 27 ± 17): 10 ± 3 ppm. | Concentration of Ethylalcohol in Plasma ([4]; 5 min, control 875 ± 203): 695 ± 122 ppm. | Concentration of Ethylalcohol in Plasma ([4]; 15 min, control 810 ± 191): 637 ± 113 ppm. | Concentration of Ethylalcohol in Plasma ([4]; 30 min, control 690 ± 214): 410 ± 77 ppm. | Concentration of Ethylalcohol in Plasma ([4]; 60 min, control 167 ± 76): 15 ± 8 ppm. | Blood Sugar ([5]; 0 min, control 145 ± 11.8): 168 ± 20.4 mg/dL | Blood Sugar ([5]; 30 min, control 311 ± 21.9): 280 ± 10.8 mg/dL | Blood Sugar ([5]; 60 min, control 290 ± 14.6): 215 ± 20.1 mg/dL | Blood Sugar ([5]; 90 min, control 263 ± 13.1): 164 ± 16.5 mg/dL | Blood Sugar ([5]; 120 min, control 251 ± 13.5): 165 ± 15.3 mg/dL
